pIC50: −log10 of the molar value.
Key:
RAW 264.7 cells = assay: AlamarBlue assay for cell viability; assay type: cell-based, murine; settings: Mus musculus, RAW264.7, cytotoxicity against RAW 264.7 cells, 24 h treatment
Protocol: RAW 264.7 cells were seeded at a density of 5000 cells in 100 μl RPMI 1640 medium with 10% heat-inactivated FBS per well in 96-well flat-bottom plates and incubated for 24 h at 37° C. in a 5% CO2 incubator. Cells were incubated with tested samples for 24 h and the AlamarBlue® assay was used to determine the cytotoxicity of the test samples. The procedure was conducted following the protocol described in the manufacture's instruction (AbD Serotec Ltd).
The aim of this study is to identify non-toxic polyenylpyrrole derivatives which can be used as anti-inflammatory agents. Compounds 1a-n were evaluated for their cytotoxicities against the murine macrophages cell line RAW 264.7 after 24 h treatment.

IL-6 [1] = assay: IL-6 ELISA, LPS-activated JAWSII dendritic cells; assay type: cell-based, murine; settings: LPS 1 μg/ml 24 h
Protocol: (A) J774A.1 macrophages (4×10^5/ml), (B) peritoneal macrophages (4×10^5/ml), and (C) JAWSII dendritic cells (4×10^5/ml) were incubated with compound 1h or DMSO for 30 min followed by stimulating with LPS (1 μg/ml) for 24 h, then IL-6 and TNF-α concentration in culture medium were assayed by ELISA. The data are expressed as the mean±SD for three separate experiments. *, **, and *** indicate a significant difference at the level of p<0.05, p<0.01, p<0.001 respectively compared to LPS group.
The effects of tested samples on IL-1β, TNF-α and IL-6 production were measured by ELISA according to the manufacturer's instruction. In brief, 50 μl of biotinylated antibody reagent and 50 μl of supernatant were added to an anti-mouse IL-1β, TNF-α and IL-6 precoated stripwell plate, and incubated at room temperature for 2 h. After washing the plate three times with washing buffer, 100 μl of diluted streptavidin-HRP concentrate was added to each well and incubated at room temperature for 30 min. The washing process was repeated; then 100 μl of a premixed tetramethylbenzidine substrate solution was added to each well and developed at room temperature in the dark for 30 min. Following the addition of 100 μl of stop solution to each well to stop the reaction, the absorbance of the plate was measured by a microplate reader at 450 nm wavelength.

IL-6 [2] = assay: IL-6 ELISA, LPS-primed ATP-stimulated J774A.1 macrophages; assay type: cell-based, mouse; settings: LPS-primed J774A.1; compound 30 min before ATP stimulation
Protocol: (§1) (A) J774A.1 macrophages (1×10^6/ml) and (B) peritoneal macrophages (1×10^5/ml) were incubated with compound 1h for 30 min followed by LPS (1 μg/ml) stimulating for 5.5 h, then the cells were stimulated with ATP (5 mM) for an additional 30 min. The IL-1β in the culture medium was measured by ELISA and the expression of active caspase-1 (p10) was measured by Western blot. In (C) and (D), J774A.1 macrophages (1×10^6/ml) were incubated with LPS (1 μg/ml) for 5.5 h, then cells were incubated with compound 1h for 30 min followed by stimulating with ATP (5 mM) for an additional 30 min. The IL-1β and IL-6 in the culture medium were measured by ELISA and the expression of active caspase-1 (p10) was measured by Western blot. In (E), J774A.1 macrophages (1×10^6/ml) were incubated with compound 1h for 30 min followed by LPS (1 μg/ml) stimulating for 6 h. The expression of NLRP3 and proIL-1β were measured by Western blot.
The effects of tested samples on IL-1β, TNF-α and IL-6 production were measured by ELISA according to the manufacturer's instruction. […] Following the addition of 100 μl of stop solution to each well to stop the reaction, the absorbance of the plate was measured by a microplate reader at 450 nm wavelength.

NLRP3 = assay: Western blot of NLRP3, LPS-activated J774A.1 macrophages; assay type: cell-based, mouse; settings: compound 30 min, then LPS 6 h
Protocol: as §1
Whole cell lysates were separated by SDS-PAGE and electrotransferred to a PVDF membrane. The membranes were incubated in blocking solution—5% nonfat milk in phosphate buffered saline with 0.1% Tween 20—at room temperature for 1 h. Each membrane was incubated with a specific primary antibody at room temperature for 2 h. After washing three times in PBS with 0.1% Tween 20, the membrane was incubated with an HRP-conjugated secondary antibody directed against the primary antibody. […]

NF-κB p65 [3] = assay: NF-κB p65 nuclear translocation ELISA, RAW 264.7 macrophages; assay type: cell-based, murine; settings: compound 1h 10-40 μM, LPS 20 min
Protocol: (§2) (A) RAW 264.7 macrophages (5×10^5/ml) or (B) J774A.1 macrophages (5×10^5/ml) were incubated with compound 1h or DMSO for 30 min followed by LPS (1 μg/ml) stimulating for 20 min, then the phosphorylation levels of IKK-α and IκB-α and total IκB-α protein level were analyzed by Western blot. (C) RAW 264.7 macrophages (5×10^5/ml) or (D) J774A.1 macrophages (5×10^5/ml) were incubated with compound 1h (10-40 μM) or DMSO for 30 min followed by LPS (1 μg/ml) stimulating for 20 min, then the nuclear translocation of NF-κB were analyzed by ELISA. (E) RAW-Blue™ cells (5×10^5/ml) were incubated with compound 1h (2.5-40 μM) or DMSO for 30 min followed by LPS (1 μg/ml) stimulating for 24 h, then the SEAP activity was measured by QUANTI-Blue™. […] In (C), (D), and (E), the data are expressed as the mean±SD for three separate experiments. *, **, and *** indicate a significant difference at the level of p<0.05, p<0.01, and p<0.001 respectively compared to LPS group.
(§3) Nuclear protein from RAW 264.7 and J774A.1 cells were extracted using a Nuclear Extract Kit (Active Motif) according to the manufacturer's instructions and nuclear NF-κB p65 activation quantified using an ELISA-based TransAM NF-κB kit (Active Motif, Tokyo, Japan) according to the manufacturer's protocol by reading the absorbance with a microplate absorbance reader (Bio-Rad Laboratories, Inc) at 450 nm with a reference wavelength of 655 nm.

NF-κB p65 [4] = assay: NF-κB p65 nuclear translocation ELISA, J774A.1 macrophages; assay type: cell-based, murine; settings: compound 1h 10-40 μM, LPS 20 min
Protocol: as §2, §3

Structure (SMILES): O=c1cc(O)cc(/C=C/C=C/C=C/C=C/c2[nH]ccc2Cl)o1 [Compound 1h]
- pIC50 (RAW 264.7 cells): < 4.00
- secretion of IL-6 (IL-6 [1]): also reduced
- IL-6 secretion (IL-6 [2]): no significant effect
- NLRP3 expression (NLRP3): increased NLRP3 expression
- NF-κB nuclear translocation (NF-κB p65 [3]): inhibited NF-κB nuclear translocation
- NF-κB nuclear translocation (NF-κB p65 [4]): inhibited NF-κB nuclear translocation
